≈ marks a conversion by molar mass, not a printed value.
tested on: Trichophyton benhamiae; experiment: Antifungal activity against Trichophyton mentagrophytes by broth micro-dilution technique; format: functional, Arthroderma benhamiae; settings: not given

Question: `OC(Cn1cncn1)(Cn1cncn1)c1ccc(F)cc1F` [FLUCONAZOLE] was tested. Which MIC did it give?
Answer: 2 µg/mL (≈ 6.53 µM)

Question: Which MIC does the source give for `O=c1cc(-c2ccc(O)c(O)c2)oc2cc(O)c([C@@H]3O[C@H](CO)[C@@H](O)[C@H](O)[C@H]3O)c(O)c12` [ISOORIENTIN] here?
Answer: 12.5 µg/mL (≈ 27.9 µM)

Question: How did the MIC turn out when `O=c1cc(-c2ccc(O)c(O)c2)oc2cc(O)cc(O)c12` [LUTEOLIN] was run?
Answer: 50 µg/mL (≈ 175 µM)

tested on: Aspergillus fumigatus; experiment: Antifungal activity against Aspergillus fumigatus by broth micro-dilution technique; format: functional; settings: not given

Question: With `OC(Cn1cncn1)(Cn1cncn1)c1ccc(F)cc1F` [FLUCONAZOLE] as the compound, how does the MIC read?
Answer: 2 µg/mL (≈ 6.53 µM)

Question: Which MIC does the source give for `O=c1cc(-c2ccc(O)c(O)c2)oc2cc(O)c([C@@H]3O[C@H](CO)[C@@H](O)[C@H](O)[C@H]3O)c(O)c12` [ISOORIENTIN] here?
Answer: 50 µg/mL (≈ 112 µM)

Question: How did the MIC turn out when `O=c1cc(-c2ccc(O)c(O)c2)oc2cc(O)cc(O)c12` [LUTEOLIN] was run?
Answer: > 50 µg/mL

tested on: Candida parapsilosis; experiment: Antifungal activity against Candida parapsilosis ATCC 22019 by broth micro-dilution technique; format: functional; settings: Lodderomyces parapsilosis

Question: With `OC(Cn1cncn1)(Cn1cncn1)c1ccc(F)cc1F` [FLUCONAZOLE] as the compound, how does the MIC read?
Answer: 1 µg/mL (≈ 3.27 µM)

Question: With `O=c1cc(-c2ccc(O)c(O)c2)oc2cc(O)c([C@@H]3O[C@H](CO)[C@@H](O)[C@H](O)[C@H]3O)c(O)c12` [ISOORIENTIN] as the compound, how does the MIC read?
Answer: > 50 µg/mL

Question: Which MIC does the source give for `O=c1cc(-c2ccc(O)c(O)c2)oc2cc(O)cc(O)c12` [LUTEOLIN] here?
Answer: 25 µg/mL (≈ 87.3 µM)

tested on: Enterococcus faecalis; experiment: Antibacterial activity against Streptococcus faecalis by broth micro-dilution technique; format: functional; settings: not given

Question: How did the MIC turn out when `CC1(C)S[C@@H]2[C@H](NC(=O)[C@H](N)c3ccccc3)C(=O)N2[C@H]1C(=O)O` [AMPICILLIN] was run?
Answer: 0.02 µg/mL (≈ 0.0572 µM)

Question: For `O=c1cc(-c2ccc(O)c(O)c2)oc2cc(O)c([C@@H]3O[C@H](CO)[C@@H](O)[C@H](O)[C@H]3O)c(O)c12` [ISOORIENTIN], which MIC is on record?
Answer: 25 µg/mL (≈ 55.8 µM)

Question: With `O=c1cc(-c2ccc(O)c(O)c2)oc2cc(O)cc(O)c12` [LUTEOLIN] as the compound, how does the MIC read?
Answer: 25 µg/mL (≈ 87.3 µM)

tested on: Klebsiella pneumoniae; experiment: Antibacterial activity against Klebsiella pneumoniae by broth micro-dilution technique; format: functional; settings: not given

Question: `CC1(C)S[C@@H]2[C@H](NC(=O)[C@H](N)c3ccccc3)C(=O)N2[C@H]1C(=O)O` [AMPICILLIN] was tested. Which MIC did it give?
Answer: 0.09 µg/mL (≈ 0.258 µM)

Question: With `O=c1cc(-c2ccc(O)c(O)c2)oc2cc(O)c([C@@H]3O[C@H](CO)[C@@H](O)[C@H](O)[C@H]3O)c(O)c12` [ISOORIENTIN] as the compound, how does the MIC read?
Answer: 25 µg/mL (≈ 55.8 µM)

Question: How did the MIC turn out when `O=c1cc(-c2ccc(O)c(O)c2)oc2cc(O)cc(O)c12` [LUTEOLIN] was run?
Answer: 25 µg/mL (≈ 87.3 µM)

tested on: Escherichia coli; experiment: Antibacterial activity against Escherichia coli by broth micro-dilution technique; format: functional; settings: not given

Question: For `O=c1cc(-c2ccc(O)c(O)c2)oc2cc(O)c([C@@H]3O[C@H](CO)[C@@H](O)[C@H](O)[C@H]3O)c(O)c12` [ISOORIENTIN], which MIC is on record?
Answer: 25 µg/mL (≈ 55.8 µM)

Question: `O=c1cc(-c2ccc(O)c(O)c2)oc2cc(O)cc(O)c12` [LUTEOLIN] was tested. Which MIC did it give?
Answer: 50 µg/mL (≈ 175 µM)

tested on: Pseudomonas aeruginosa; experiment: Antibacterial activity against Pseudomonas aeruginosa by broth micro-dilution technique; format: functional; settings: not given

Question: Which MIC does the source give for `CC1(C)S[C@@H]2[C@H](NC(=O)[C@H](N)c3ccccc3)C(=O)N2[C@H]1C(=O)O` [AMPICILLIN] here?
Answer: 50 µg/mL (≈ 143 µM)

Question: Which MIC does the source give for `O=c1cc(-c2ccc(O)c(O)c2)oc2cc(O)c([C@@H]3O[C@H](CO)[C@@H](O)[C@H](O)[C@H]3O)c(O)c12` [ISOORIENTIN] here?
Answer: > 50 µg/mL

Question: `O=c1cc(-c2ccc(O)c(O)c2)oc2cc(O)cc(O)c12` [LUTEOLIN] was tested. Which MIC did it give?
Answer: 25 µg/mL (≈ 87.3 µM)

tested on: Staphylococcus aureus; experiment: Antibacterial activity against Staphylococcus aureus by broth micro-dilution technique; format: functional; settings: not given

Question: With `CC1(C)S[C@@H]2[C@H](NC(=O)[C@H](N)c3ccccc3)C(=O)N2[C@H]1C(=O)O` [AMPICILLIN] as the compound, how does the MIC read?
Answer: 0.09 µg/mL (≈ 0.258 µM)

Question: With `O=c1cc(-c2ccc(O)c(O)c2)oc2cc(O)c([C@@H]3O[C@H](CO)[C@@H](O)[C@H](O)[C@H]3O)c(O)c12` [ISOORIENTIN] as the compound, how does the MIC read?
Answer: 25 µg/mL (≈ 55.8 µM)

Question: How did the MIC turn out when `O=c1cc(-c2ccc(O)c(O)c2)oc2cc(O)cc(O)c12` [LUTEOLIN] was run?
Answer: 25 µg/mL (≈ 87.3 µM)

tested on: Candida albicans; experiment: Antifungal activity against Candida albicans by broth micro-dilution technique; format: functional; settings: not given

Question: How did the MIC turn out when `OC(Cn1cncn1)(Cn1cncn1)c1ccc(F)cc1F` [FLUCONAZOLE] was run?
Answer: 0.5 µg/mL (≈ 1.63 µM)

Question: For `O=c1cc(-c2ccc(O)c(O)c2)oc2cc(O)c([C@@H]3O[C@H](CO)[C@@H](O)[C@H](O)[C@H]3O)c(O)c12` [ISOORIENTIN], which MIC is on record?
Answer: > 50 µg/mL

Question: Which MIC does the source give for `O=c1cc(-c2ccc(O)c(O)c2)oc2cc(O)cc(O)c12` [LUTEOLIN] here?
Answer: > 50 µg/mL

tested on: Cryptococcus neoformans; experiment: Antifungal activity against Cryptococcus neoformans by broth micro-dilution technique; format: functional; settings: not given

Question: Which MIC does the source give for `OC(Cn1cncn1)(Cn1cncn1)c1ccc(F)cc1F` [FLUCONAZOLE] here?
Answer: 1 µg/mL (≈ 3.27 µM)

Question: With `O=c1cc(-c2ccc(O)c(O)c2)oc2cc(O)c([C@@H]3O[C@H](CO)[C@@H](O)[C@H](O)[C@H]3O)c(O)c12` [ISOORIENTIN] as the compound, how does the MIC read?
Answer: 25 µg/mL (≈ 55.8 µM)

Question: How did the MIC turn out when `O=c1cc(-c2ccc(O)c(O)c2)oc2cc(O)cc(O)c12` [LUTEOLIN] was run?
Answer: 25 µg/mL (≈ 87.3 µM)

tested on: Sporothrix schenckii; experiment: Antifungal activity against Sporothrix schenckii by broth micro-dilution technique; format: functional; settings: not given

Question: For `OC(Cn1cncn1)(Cn1cncn1)c1ccc(F)cc1F` [FLUCONAZOLE], which MIC is on record?
Answer: 2 µg/mL (≈ 6.53 µM)

Question: `O=c1cc(-c2ccc(O)c(O)c2)oc2cc(O)c([C@@H]3O[C@H](CO)[C@@H](O)[C@H](O)[C@H]3O)c(O)c12` [ISOORIENTIN] was tested. Which MIC did it give?
Answer: > 50 µg/mL

Question: Which MIC does the source give for `O=c1cc(-c2ccc(O)c(O)c2)oc2cc(O)cc(O)c12` [LUTEOLIN] here?
Answer: > 50 µg/mL
